Laboratory results taken from patent publication US10464893B2, “Derivatives of pyrrole-2,5-diones having a fungicidal activity, their agronomical compositions and use thereof” (ISAGRO S.p.A., priority 2016, dated 2019).

Assays:
Uromyces appendiculatus = assay: Preventive activity (7 days) against Uromyces appendiculatus on beans; type: in vivo; conditions: leaf spray on bean plants, inoculation 7 days after treatment, reduction of diseased leaf area vs non-treated (100=total effectiveness)
Protocol: Determination of the Preventive Activity (7 Days) of Compounds Having Formula (I) Against Uromyces appendiculatus on Beans
Leaves of bean plants, grown in pots, in a conditioned environment (20±1° C., 70% of R.H.), were treated by spraying both sides with the products under examination.
7 days after the treatment, the plants were inoculated with an aqueous suspension of spores of Uromyces appendiculatus (200,000 spores/cc) by spraying on both sides of the leaves with a compressed air gun.
(§1) After remaining 24 hours in a humidity saturated environment, at 21° C., the plants were transferred for the incubation period (7 days) to a conditioned environment at 70% R.H. and at 24° C.
(§2) After this period, the external symptoms of the pathogen appeared and it was consequently possible to proceed with a visual evaluation of the intensity of the infection.
(§3) The fungicidal activity is expressed as a reduction percentage, with respect to non-treated seedlings, in the area of the leaves affected by the disease (100=total effectiveness, 0=zero effectiveness).
Table 3 indicates the results obtained for the compounds tested, compared with the reference product Domark® (Tetraconazole).

Plasmopara viticola = assay: Preventive activity (7 days) against Plasmopara viticola on vines; type: in vivo; conditions: leaf spray on vine plants, inoculation 7 days after treatment, reduction of diseased leaf area vs non-treated (100=total effectiveness)
Protocol: Determination of the Preventive Activity (7 Days) of Compounds Having Formula (I) Against Plasmopara viticola on Vines
Leaves of vine plants, grown in pots, in a conditioned environment (20±1° C., 70% of R.H.), were treated by spraying both sides with the products under examination.
7 days after the treatment, the plants were inoculated with an aqueous suspension of spores of Plasmopara viticola (200,000 spores/cc) by spraying on both sides of the leaves with a compressed air gun.
as §1, §2, §3
Table 2 indicates the results obtained for the compounds tested, compared with the reference product Mancozeb (polymeric complex of manganese ethylenebisdithiocarbamate with zinc salt).

Compound | Effectiveness (%) (Uromyces appendiculatus; dose 125 ppm) | Effectiveness (%) (Uromyces appendiculatus; dose 500 ppm) | Effectiveness (%) (Plasmopara viticola; dose 125 ppm) | Effectiveness (%) (Plasmopara viticola; dose 500 ppm)
CS(=O)(=O)N1C(=O)C(c2ccccc2)=C(c2cccc3ccccc23)C1=O [Compound 3, 1-methanesulfonyl-3-phenyl-4-(1-naphthyl)-1H-pyrrol-2,5-dione] | 84 | 93 | 86 | 99
CC(=O)ON1C(=O)C(c2ccccc2Br)=C(c2cccc3ccccc23)C1=O [Compound 11, 1-acetyloxy-3-(2-bromophenyl)-4-(1-naphthyl)-1H-pyrrole-2,5-dione] | 80 | 95 | 82 | 92
CS(=O)(=O)ON1C(=O)C(c2ccccc2Br)=C(c2cccc3ccccc23)C1=O [Compound 12, 3-(2-bromophenyl)-1-(methane-sulfonyloxy)-4-(1-naphthyl)-1H-pyrrole-2,5-dione] | 83 | 98 | 91 | 93
CCOC(=O)NN1C(=O)C(c2ccccc2Br)=C(c2cccc3ccccc23)C1=O [Compound 13, ethyl 3-(2-bromophenyl)-4-(1-naphthyl)-2,5-dione-1H-pyrrolylcarbamate] | 81 | 92 | 89 | 97
polymeric complex of manganese ethylenebisdithiocarbamate with zinc salt [Mancozeb, reference compound] |  |  | 78 | 96
t-butyl 3-phenyl-4-(1-naphthyl)-2,5-dione-1H-pyrrolylcarbamate [Compound 8] | 93 | 95 |  | 
